This note sets out measurements from patent US10953027B2, “Active agents and methods of their use for the treatment of metabolic disorders and nonalcoholic fatty liver disease” (Flagship Pioneering Innovations V, Inc., priority 2018, dated 2021).

In one data set the test system is AhR. Kind of data set: AhR activation in Caco-2 cells through CYP1A1 mRNA expression. As to the method:
Caco-2 cells from American Type Culture Collection (ATCC) were plated in a sterile tissue culture treated 96-well plate (ThermoFisher) at […] per well, and grown overnight at 37° C., 5% CO2 in DMEM complete (Gibco) in order to achieve confluence. After the incubation medium was aspirated from the Caco-2 monolayers, tissues were then washed with 200 μL of warmed PBS solution, and subsequently 190 μL of pre-warmed growth medium was added to each well. Compounds of interest were diluted at a 20× concentration in growth medium containing 2% DMSO, and 10 μL of compound solutions were added to respective wells in triplicate. Compounds where incubated overnight at 37° C., 5% CO2. 2-(1′H-indole-3′-carbonyl)-thiazole-4-carboxylic acid methyl ester (ITE) was used as the positive control for AhR activation at 1 and 100 μM concentrations. At the end of the incubation, medium was aspirated off of the Caco-2 cells, and washed with 100 μL of cold PBS solution. RNA was extracted via the TaqMan™ Gene Expression Cells-to-CT™ Kit (ThermoFisher) according to the manufacturers protocol. The QuantStudio 6 Flex (Applied Biosciences) was used to analyze mRNA levels of CYP1A1 using GAPDH as the endogenous control. TaqMan™ probe sets for both genes were acquired from ThermoFisher. Samples were run in triplicate and data was analyzed using the QuantStudio software and reported as linear (Table 1) and log 2(ΔΔCT) values. Statistical analysis was performed using a two-tailed t-test comparing CYP1A1 levels in the presence of each individual compound to the vehicle negative control.

Data set [1] has as its system Primary human subcutaneous adipocytes. As to the kind of experiment: Glucose uptake in human subcutaneous adipocytes, insulin resistant model. In kind it is cell-based. Here is the method:
As described above, primary human subcutaneous adipocytes were differentiated for two weeks prior to treatment. To induce an insulin resistant state, cells were treated in serum free Dulbecco's Modified Eagle Medium (high glucose) and […] for 24 hours. Cells were simultaneously treated with compounds diluted in DMSO for 24 hours. As described above, after 24 hours, media was exchanged for assay buffer and the compounds were added again but in the presence of approximately 1 nM insulin. Cells were washed and lysed after 2 hours and glucose uptake was measured. […] Statistical changes in glucose uptake were determined by way ANOVA and compared to DMSO.

In the next data set the test system is naïve CD4+ T cells. As to the kind of experiment: Human regulatory T cell differentiation assay. In kind it is cell-based. The following applies: 6 days. A digest of the protocol: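 Naïve CD4+ T cells from healthy-donor PBMCs cultured 6 days in OpTmizer medium with 5 ng/ml TGF-β, 100 U/ml IL-2 and CD3/CD28/CD2 activator, with or without compound. Tregs (live CD4+CD3+CD25+FOXP3+, lineage-negative) measured by flow cytometry and expressed as % of total CD4+ T cells.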

In a further data set the test system is Mouse 3T3-L1 cells. Kind of data set: Mouse adipocyte lipolysis assay. In kind it is cell-based. The conditions noted are these: 24 hours. Here is the method:
Once the cells became confluent, they were seeded into a tissue culture treated 96 well plate. […] After 14 days of differentiation, cells were treated with compounds of interest. After 24 hours post-treatment, the cell viability was assessed using CellTiter-Glo Luminescent Cell Viability Assay from Promega, and lipolysis was determined using Lipolysis Assay Kit from ZenBio.

The next data set has as its system Caco-2 colonocytes. As to the kind of experiment: Human Caco-2 barrier integrity assay (TEER). In kind it is cell-based. The following applies: 48 hours. As to the method: Caco-2 colonocytes were maintained at 37° C. and 5% CO2 in Dulbecco's Modified Eagle Medium (DMEM) and supplemented with 10% FBS, 1% NEAA, 1% penicillin-streptomycin. At 70-80% confluency, cells were trypsinized and seeded in 0.4 cm^2 transwell collagen I coated membranes with supplemented DMEM in both apical and basolateral compartments. Cells were seeded at a density of 200,000 cells per well and maintained for 10 days to form a polarized barrier with a TransEpithelial Electrial Resistance (TEER) reading above 1000Ω. On the first day of the assay, initial TEER readings were taken and cytokines were added to the basolateral media (50 ng/mL TNFα, 25 ng/mL IFNγ and 10 ng/mL IL-1β) to reduce barrier integrity while compounds diluted in (dimethylsulfoxide) DMSO were added to the apical media in triplicate. After 48 hours, TEER readings were taken again and viability was measured by CellTiter 96® AQueous One Solution Cell Proliferation Assay (Promega). The percent change in TEER over the 48 hours was determined and normalized to the 0.1% DMSO control (Table 6).

Data set [2] relates to Primary human subcutaneous adipocytes. Kind of data set: Glucose uptake in human subcutaneous adipocytes, insulin sensitive model. The class given is cell-based. As to the method: Primary human subcutaneous adipocytes (Zen Bio, Research Triangle Park, N.C.) were differentiated for two weeks prior to treatment. Cells were treated with indicated compounds diluted in (dimethyl-sulfoxide) DMSO in serum free medium for 24 hours in triplicate. After 24 hours, media was exchanged for assay buffer and the compounds were added again but in the presence of approximately 1 nM insulin. Glucose uptake was initiated with the addition of a cocktail containing 2-deoxyglucose and ^3H-2-deoxyglucose and allowed to incubate for 2 hours. Cells were washed, lysed and glucose uptake was measured as counts per well. As an assay control, 100 nM of insulin was used during the 2 hours of glucose uptake. […] Statistical changes in glucose uptake were determined by way ANOVA and compared to DMSO.

A further data set has as its system Mouse myocyte. Kind of data set: Mouse myocyte lipolysis assay. In kind it is cell-based.
Another data set concerns DIO-NASH mice. As to the kind of experiment: DIO animal model of NAFLD/NASH (Example 15). In kind it is in vivo. The conditions noted are these: 0.03% in AMLN diet, vs DIO-NASH vehicle. As to the method:
The effect of 8 weeks of treatment for the indicated compounds on metabolic liver disease in pre-biopsied, 43-week old male DIO-NASH mice was evaluated (12 animals per group). Male C57BL/6JRj mice were fed 40% fat (18% trans-fat), 40% carbohydrate (20% fructose), and 2% Cholesterol (AMLN) diet for 38 weeks. All mice entering the experiment were pre-biopsied stratified based on liver biopsy (only animals with fibrosis stage ≥1 and steatosis score ≥2 were included). Animals were randomized into groups based on Col1a1 immunostaining. Mice were treated for a total of 8 weeks of dosing (drugs in diet, ad lib). […] Elafibranor was supplied by the vendor. Body weight was measured daily for the entire study period. Food intake was monitored daily for first 14 days and then twice a week until study end. Day 28 collection of tail vein blood/serum and feces. Terminal plasma was collected for biomarker determination of liver transaminases (ALT, AST), triglyceride and cholesterol. Terminal liver was removed, weighed, and sampled for 1) FFPE (histology), 2) frozen (biochemistry and nucleic acid). Liver biopsy histology: pre- and post-treatment NAFLD Activity Score (HE) including Fibrosis Stage (PSR), 2) post-treatment steatosis (HE), 3) post-treatment lipid-droplet #+size (HE), 4) post-treatment Galectin-3 (IHC), 5) pre- and post-treatment Collagen 1a1 (IHC), 6) post-treatment α-SMA (IHC). […]

In data set [3] the test system is Human Peripheral Blood Monocytes (PBMCs). As to the kind of experiment: Cytokine release from human PBMCs. The class given is cell-based. The conditions noted are these: 100 μM, LPS, 24 hours. Here is the method:
Human donor blood (8 mL) was collected in sodium citrate CPT tubes and centrifuged at 1,600×g for 20 minutes at room temperature. […] PBMCs samples were centrifuged at 400×g for 10 minutes at 10° C. […] PBMCs were filtered through a 70 micron mesh to remove any cellular debris. […] PBMCs in a 96-well plate were rested for 30 minutes in a 37° C., 5% CO2 incubator, then subsequently treated with 10 μl of indicated compound. After 2 hours 10 μL of LPS (O111:B4) 1 mg/mL was added to test wells. After 24 hours of incubation at 37° C., 5% CO2, 100 μL of cell supernatant was collected and transferred to a 96-well plate (non-tissue treated, flat bottom). The plate was centrifuged at 350×g for 5 minutes at room temperature, and then the clear supernatant transferred to a new 96-well plate (non-tissue treated, flat bottom). The remaining cells were tested for viability using CellTiter-Glo® Luminescent Cell Viability Assay (Promega). The supernatant was analyzed for TNFα, IL-6 and IL-1β (kit LXSAHM-03; R&D Systems), using Luminex Immunoassay Technology (MAGPIX System). Cytokine levels of LPS treated DMSO control samples were set to 100%, and compound treated samples were expressed relative to this (Table 13).

Structures are written as SMILES.

`Cn1cc(C[C@H](N)C(=O)O)c2ccccc21` [1-methylindole-3-alanine]: the “Average CYP1A1 mRNA levels” value is on record as “+ (+ = >2-fold Vehicle)” with AhR (Conc. 10.0 μM) and “+++ (+++ = >10-fold Vehicle)” with AhR (Conc. 100.0 μM).
With `O=C(O)c1ccccc1` [Benzoic acid], the “Average CYP1A1 mRNA levels” value with AhR (Conc. 10.0 μM) and with AhR (Conc. 100.0 μM) was “+ (+ = >2-fold Vehicle)” in each case.
With `O=C(O[C@@H]1Cc2c(O)cc(O)cc2O[C@@H]1c1cc(O)c(O)c(O)c1)c1cc(O)c(O)c(O)c1` [EGCG, epigallocatechin gallate], the “Insulin Resistant % DMSO (glucose uptake)” value was “+ (110%> ≤140%: +)” in [1] (100 nM) and “= (50%> ≤110%: =)” in data set [1] (10 μM). Further, the “Average CYP1A1 mRNA levels” value with AhR (Conc. 0.1 μM) and with AhR (Conc. 1.0 μM) was “− (− = +2-fold Vehicle)” in each case. For the same compound, the “Cell viability % DMSO” value in the data set on naïve CD4+ T cells (100 nM) and in the data set on naïve CD4+ T cells (1 uM) was “= (90%≥ ≤110%: =)” throughout. Also, the “Treg induction % DMSO” value in the data set with naïve CD4+ T cells (100 nM) and in the data set with naïve CD4+ T cells (1 uM) was “= (90%≥ ≤110%: =)” each time. For the same compound, the “Lipolysis Free Fatty Acids % DMSO” value in the data set with Mouse 3T3-L1 cells (100 nM) and in the data set with Mouse 3T3-L1 cells (1 μM) was “++ (50> ≤70%: ++)” throughout. The “Lipolysis Glycerol % change” value in the data set with Mouse 3T3-L1 cells (100 nM) and with Mouse 3T3-L1 cells (1 μM) was “+ (70%> ≤90%: +)” each time. For the same compound, the “% Change in TEER from DMSO” value with Caco-2 colonocytes (100 nM + cytokines) and with Caco-2 colonocytes (1 μM + cytokines) was “− (≤125%: −)” in each case. For the same compound, the “Insulin Sensitive % DMSO (glucose uptake)” value in data set [2] (100 nM) and in data set [2] (10 μM) was “= (50%> ≤110%: =)” each time. For the same compound, the “Free glycerol % DMSO” value with Mouse myocyte (100 nM) and with Mouse myocyte (1 μM) was “+ (70%> <90%: +)” in each case.
On to `CSc1ccc(C(=O)/C=C/c2cc(C)c(OC(C)(C)C(=O)O)c(C)c2)cc1` [Elafibranor], for which, in the data set with DIO-NASH mice, the “liver fibrosis, Picro Sirius red (FIG. 49B)” value was “the fibrosis is finer” and the “liver morphology: lipid vacuole size (FIG. 48B)” value is listed as “the vacuoles are smaller”.
Turning to `COC(=O)c1csc(C(=O)c2c[nH]c3ccccc23)n1` [ITE, 2-(1′H-indole-3′-carbonyl)-thiazole-4-carboxylic acid methyl ester], the “Average CYP1A1 mRNA levels” value in the data set with AhR (Conc. 1.0 μM) was “+++ (+++ = >10-fold Vehicle)”.
In the case of `Oc1ccc(C=Cc2cc(O)cc(O)c2)cc1` [Resveratrol, resveratrol], the “Insulin Resistant % DMSO (glucose uptake)” value in data set [1] (10 μM) is given as “= (50%> ≤110%: =)”; in data set [1] (100 μM) it was “− (<50%: −)”. The “IL6 % DMSO control” value in data set [3] is recorded as “+ ((+) 50%≥ <90% DMSO)”. In [3], the “ILβ % DMSO control” value is reported as “= ((=) 90%≥ <110% DMSO)”. Besides, the “TNFα % of DMSO control” value in data set [3] is recorded as “+ ((+) 50%≥ <90% DMSO)”. Besides, the “Cell viability % DMSO” value in the data set with naïve CD4+ T cells (1 uM) and with naïve CD4+ T cells (10 uM) was “− (<90%: −)” throughout. In addition, the activity at 1 µM fell in the range of 110 to 130% in the data set on naïve CD4+ T cells (Homo sapiens, CD4+ T, 144 h, 1 uM, read-out: Treg induction % DMSO); 70 to 90% with Mouse 3T3-L1 cells (Mus musculus, 3T3-L1, 1 μM, read-out: Lipolysis Free Fatty Acids % DMSO); 70 to 90% in the data set with Mouse myocyte (Mus musculus, 1 μM, read-out: Free glycerol % DMSO). The activity at 10 µM lay in the range of 110 to 130% in the data set with naïve CD4+ T cells (Homo sapiens, CD4+ T, 144 h, 10 uM, read-out: Treg induction % DMSO); 90 to 100% in the data set with Mouse 3T3-L1 cells (Mus musculus, 3T3-L1, 10 μM, read-out: Lipolysis Free Fatty Acids % DMSO); 50 to 70% with Mouse myocyte (Mus musculus, 10 μM, read-out: Free glycerol % DMSO). Further, the “% Change in TEER from DMSO” value with Caco-2 colonocytes (10 μM + cytokines) was “− (≤125%: −)”; in the data set on Caco-2 colonocytes (100 μM + cytokines), “+++ (200%>: +++)”. Also, the “Insulin Sensitive % DMSO (glucose uptake)” value was “= (50%> ≤110%: =)” in [2] (10 μM) and “− (<50%: −)” in data set [2] (100 μM).
As for `CC(O)CCO` (centres unmarked) [butanediol, 1,3-butanediol], the “Average CYP1A1 mRNA levels” value in the data set on AhR (Conc. 500.0 μM) is given as “− (− = +2-fold Vehicle)”. In addition, in [3], the “IL6 % DMSO control” value is “= ((=) 90%≥ <110% DMSO)”, the “ILβ % DMSO control” value was “= ((=) 90%≥ <110% DMSO)” and the “TNFα % of DMSO control” value is given as “= ((=) 90%≥ <110% DMSO)”. Moreover, in the data set with Caco-2 colonocytes (100 μM + cytokines), the “% Change in TEER from DMSO” value is on record as “− (≤125%: −)”. The “% Change in TEER from DMSO” value in the data set on Caco-2 colonocytes (0.5 mM + cytokines) is recorded as “− (≤125%: −)”.
With `OCc1c[nH]c2ccccc12` [indole-3-carbinol], the “Average CYP1A1 mRNA levels” value with AhR (Conc. 1000.0 μM) is on record as “+ (+ = >2-fold Vehicle)”.
On the same count and under the same terms, with `c1ccc2[nH]ccc2c1` [indole] the entry was “+ (+ = >2-fold Vehicle)”.
